Where two headings read alike, the source gives them in different places.
Columns and labels:
Spraque-Dawley rats [1] = experiment: Warm-water tail withdrawal combination studies with morphine; assay type: in vivo, rat; settings: 30 min before testing
Method: (§1) The terminal 10 cm of the tail was placed into a thermos bottle containing water warmed to 38, 42, 46, 50, 54, or 58° C. The latency in seconds for the animal to remove the tail from the water was used as a measure of nociception.
Combination compound studies. […] Compounds were administered IP at the same time 30 min before testing.
(§2) Test Method 1 Data Analysis—The temperature that produced a half-maximal increase in the tail-withdrawal latency (i.e., T10) was calculated from each temperature-effect curve. The T10 was determined by interpolation from a line drawn between the point above and the point below 10 sec on the temperature-effect curve. For these studies, thermal hypersensitivity was defined as a leftward shift in the temperature-effect curve and a decrease in the T10 value. Reversal of thermal hypersensitivity was defined as a return to baseline of the temperature-effect curve and the T10 value and was calculated according to the following equation: […]

Spraque-Dawley rats [2] = assay type: in vivo, rat
Method: as §1
(§3) Following the assessment of baseline thermal sensitivity, thermal hypersensitivity was produced by a 50 μL injection of 0.1 mg prostaglandin E2 (PGE2) into the terminal 1 cm of the tail. Temperature-effect curves were generated before (baseline) and after (15, 30, 60, 90 and 120 min) the PGE2 injection.
Compounds were administered IP at the same time as PGE2, which was administered 30 min before testing.
as §2

[3] = system: rats trained to discriminate between saline and PCP; settings: cited from earlier work
Spraque-Dawley rats [4] = experiment: Scheduled-controlled responding (operant responding, food presentation); settings: for Operant responding: response rate as a percent of control: IP; for rates of responding (in words): schedule of food presentation, Compound A IP or PO at doses that reversed hypersensitivity
Source text: (§4) [formula] in which 50%^drug+CCl is the 50% value after compound in animals approximately one week after CCl surgery, 50%^CCl is the 50% value approximately one week after CCl surgery alone, and 50%^baseline is the 50% value before CCl surgery. Maximal effect of 100% reversal represents a return to the mean pre-operative threshold value for subjects in that experimental condition. Test Method 3: Scheduled-Controlled Responding.
Rats were trained under a multiple-cycle procedure during experimental sessions conducted five days each week. Each training cycle consisted of a 1-min pretreatment period followed by a 10-min response period. During the pretreatment period, stimulus lights were not illuminated, and responding had no scheduled consequences. During the response period, the left or right stimulus lights were illuminated (counterbalanced among subjects), the response lever was extended and subjects could respond under a fixed ratio 30 schedule of food presentation. Training sessions consisted of 3 consecutive cycles. Testing sessions were identical to training sessions except that a single dose of drug was administered at the start of the first cycle.
Data analysis. Operant response rates from individual animals were averaged for the three cycles during test sessions and were converted to percent of control response rates using the average rate from the previous training day as the control value (i.e., average of three cycles). Data are presented as the mean (±1 SEM) response rate as a percent of control.

Spraque-Dawley rats [5] = experiment: Observable signs of sedation and ataxia
Spraque-Dawley rats [6] = experiment: Prostaglandin E2-induced thermal hypersensitivity, warm-water tail withdrawal, single compound studies; assay type: in vivo, rat; settings: for % MPE (reversal of PGE2-induced thermal hypersensitivity): given 30 min before PGE2
Method: Ketamine and dizocilpine are high affinity use-dependent NMDA receptor channel blockers, while memantine is a moderate affinity use-dependent NMDA receptor channel blocker. CGS-19755 is a competitive NMDA antagonist and ifenprodil is a […] polyamine antagonist. Test Method 1: Prostaglandin E2-Induced Thermal Hypersensitivity.
as §1, §3
Single compound studies. The ability of drugs to reverse PGE2-induced thermal hypersensitivity was assessed using a single dose time-course procedure. Under this procedure, a single dose of the compound to be tested was administered intraperitoneally (IP), orally (PO) or intranasally (IN) 30 min before the injection of PGE2. […] sensitivity was assessed 30 min after PGE2 injection.
Test Method 1 Data Analysis—The temperature that produced a half-maximal increase in the tail-withdrawal latency (i.e., T10) was calculated from each temperature-effect curve. The T10 was determined by interpolation from a line drawn between the point above and the point below 10 sec on the temperature-effect curve. For these studies, thermal hypersensitivity was defined as a leftward shift in the temperature-effect curve and a decrease in the T10 value. Reversal of thermal hypersensitivity was defined as a return to baseline of the temperature-effect curve and the T10 value and was calculated according to the following equation:
[formula] in which T10^drug+PGE2 is the T10 after a drug in combination with PGE2, T10^PGE2 is the T10 after PGE2 alone, and T10^baseline is the T10 under control conditions. A % MPE value of 100 indicates a complete return to the baseline thermal sensitivity observed without the PGE2 injection. […] Test Method 2: Chronic Constriction Injury

Spraque-Dawley rats [7] = experiment: Chronic Constriction Injury-induced tactile hypersensitivity (von Frey); assay type: in vivo, rat; settings: for % Reversal of CCl-induced tactile hypersensitivity: IP, one week after CCl surgery; for reversal of CCl-induced tactile hypersensitivity (in words): up to doses that produced observable signs of sedation and ataxia
Source text: Rats were anesthetized with 3.5% halothane in O2 at 1 L/min and maintained with 1.5% halothane in O2 during surgery. A modified chronic sciatic nerve constriction injury (Mosconi & Kruger, 1996; Bennett & Xie, 1988) was produced by a cutaneous incision and a blunt dissection through the biceps femoris to expose the sciatic nerve. A PE 90 Polyethylene tubing (Intramedic, Clay Adams; Becton Dickinson Co.) cuff (2 mm length) was placed around the sciatic nerve at the level of the mid-thigh. The wound was closed in layers using 4-0 silk suture and wound clips. Testing was conducted 6-10 days after surgery.
Animals were placed in elevated wire cages and allowed 45-60 minutes to acclimate to the testing room. Baseline tactile sensitivity was assessed using a series of calibrated von Frey monofilaments (Stoelting; Wood Dale, Ill.) 0-3 days before surgery. Von Frey monofilaments were applied to the mid-plantar hind paw in sequential ascending or descending order, as necessary, to hover as closely as possible to the threshold of responses. The threshold was indicated by the lowest force that evoked a brisk withdrawal response to the stimuli. Thus, a withdrawal response led to the presentation of the next lighter stimulus and the lack of a withdrawal response led to the presentation of the next stronger stimulus. Rats with baseline thresholds <10 g force were excluded from the study. […] Under cumulative dosing conditions, compounds were administered IP every 30 minutes with the cumulative dose increasing in ½ log unit increments. Tactile hypersensitivity was assessed 20-30 minutes following each drug administration.
Test Method 2 Data Analysis—The 50% threshold values (in gm force) estimated by the Dixon non-parametric test (Chaplan et al, 1994) was calculated and fifteen-grams of force was used as the maximal force. Dose-effect curves were generated for each experimental condition for each rat. Individual tactile hypersensitivity threshold values were averaged to provide a mean (±1 SEM). Reversal of tactile hypersensitivity was defined as a return to baseline tactile sensitivity and was calculated according to the following equation:
as §4

[8] = system: cingulate and retrosplenial cortices of mice and rats; settings: cited from earlier work
monkeys = settings: cited from earlier work
[9] = IP, PGE2-induced thermal hypersensitivity study
[10] = IP, CCl-induced tactile hypersensitivity study

CN1CC[C@]23c4c5ccc(O)c4O[C@H]2[C@@H](O)C=C[C@H]3[C@H]1C5 [Morphine, morphine]
Change from Baseline (T10) (Spraque-Dawley rats [1]; morphine 5.6 mg/kg IP): +2.3
Change from Baseline (T10) (Spraque-Dawley rats [2]; rat, in vivo): +0.3

C[C@]12N[C@H](Cc3ccccc31)c1ccccc12 [dizocilpine]
substitution for the PCP-like discriminative stimulus effects [3]: substitute for the PCP-like discriminative stimulus effects
Operant responding: response rate as a percent of control (Spraque-Dawley rats [4]; 0.1 mg/kg): 63%
Operant responding: response rate as a percent of control (Spraque-Dawley rats [4]; 0.3 mg/kg): 16%
rates of responding (in words) (Spraque-Dawley rats [4]): dose-dependently decreased rates of responding
doses that produced observable signs of sedation and ataxia (Spraque-Dawley rats [5]; [9]): < 0.3 mg/kg
% MPE (reversal of PGE2-induced thermal hypersensitivity) (Spraque-Dawley rats [6]; IP, 0.3 mg/kg): 18%

CC(C(O)c1ccc(O)cc1)N1CCC(Cc2ccccc2)CC1 (centres unmarked) [ifenfrodil, ifenprodil]
% MPE (reversal of PGE2-induced thermal hypersensitivity) (Spraque-Dawley rats [6]; IP, 10 mg/kg): 1%
% MPE (reversal of PGE2-induced thermal hypersensitivity) (Spraque-Dawley rats [6]; IP, 30 mg/kg): 14%

O=c1c2c(c1=O)N(Cc1nnn[nH]1)CCCN2 [Compound B, 2-[(1H-Tetrazol-5-yl)methyl]-2,6-diazabicyclo[5.2.0]-non-1-(7)-ene-8,9-dione]
sedation or ataxia (Spraque-Dawley rats [5]; doses used in the CCl-induced tactile hypersensitivity study, IP): not associated with sedation or ataxia
% MPE (reversal of PGE2-induced thermal hypersensitivity) (Spraque-Dawley rats [6]; PO, 3 mg/kg): 16%
% MPE (reversal of PGE2-induced thermal hypersensitivity) (Spraque-Dawley rats [6]; PO, 10 mg/kg): 92%
% MPE (reversal of PGE2-induced thermal hypersensitivity) (Spraque-Dawley rats [6]; PO, 30 mg/kg): 101%
reversal of PGE2-induced thermal hypersensitivity (in words) (Spraque-Dawley rats [6]; rat, in vivo): full reversal
% Reversal of CCl-induced tactile hypersensitivity (Spraque-Dawley rats [7]; cumulative dose 1 mg/kg): 13%
% Reversal of CCl-induced tactile hypersensitivity (Spraque-Dawley rats [7]; cumulative dose 3 mg/kg): 14%
% Reversal of CCl-induced tactile hypersensitivity (Spraque-Dawley rats [7]; cumulative dose 10 mg/kg, 10 mg/kg): 40%
% Reversal of CCl-induced tactile hypersensitivity (Spraque-Dawley rats [7]; cumulative dose 30 mg/kg): 12%

CNC1(c2ccccc2Cl)CCCCC1=O (centres unmarked) [ketamine]
substitution for the PCP-like discriminative stimulus effects [3]: substitute for the PCP-like discriminative stimulus effects
% MPE (reversal of PGE2-induced thermal hypersensitivity) (Spraque-Dawley rats [6]; IP, 10 mg/kg): 14%
% MPE (reversal of PGE2-induced thermal hypersensitivity) (Spraque-Dawley rats [6]; IP, 18 mg/kg): 9%
Change from Baseline (T10) (Spraque-Dawley rats [1]; 18.0 mg/kg IP): −0.3
Change from Baseline (T10) (Spraque-Dawley rats [2]; 18.0 mg/kg IP with PGE2, PGE2 + vehicle −5.6): −5.5

O=C(O)[C@H]1C[C@@H](CP(=O)(O)O)CCN1 (relative stereo) [CGS-19755, cis-4-phosphonomethyl-2-piperidine carboxylic acid]
vacuolization (in words) ([8]; cingulate and retrosplenial cortices of mice and rats): caused vacuolization at behaviorally effective doses
effectiveness/vacuolization ratio ([8]; mice and rats, behaviorly effective doses): 1
doses that produced observable signs of sedation and ataxia (Spraque-Dawley rats [5]; [10]): < 30 mg/kg
% MPE (reversal of PGE2-induced thermal hypersensitivity) (Spraque-Dawley rats [6]; IP, 3 mg/kg): 9%
% MPE (reversal of PGE2-induced thermal hypersensitivity) (Spraque-Dawley rats [6]; IP, 10 mg/kg): 25%
% MPE (reversal of PGE2-induced thermal hypersensitivity) (Spraque-Dawley rats [6]; IP, 30 mg/kg): 9%
% Reversal of CCl-induced tactile hypersensitivity (Spraque-Dawley rats [7]; cumulative dose 3 mg/kg): −9%
% Reversal of CCl-induced tactile hypersensitivity (Spraque-Dawley rats [7]; cumulative dose 10 mg/kg): −5%
% Reversal of CCl-induced tactile hypersensitivity (Spraque-Dawley rats [7]; cumulative dose 30 mg/kg): −17%
reversal of CCl-induced tactile hypersensitivity (in words) (Spraque-Dawley rats [7]): none of the comparative compounds produced any reversal

CC12CC3CC(C)(C1)CC(N)(C3)C2 [memantine]
substitution for the PCP-like discriminative stimulus effects [3]: substitute for the PCP-like discriminative stimulus effects
Operant responding: response rate as a percent of control (Spraque-Dawley rats [4]; 3 mg/kg): 93%
Operant responding: response rate as a percent of control (Spraque-Dawley rats [4]; 10 mg/kg): 2%
rates of responding (in words) (Spraque-Dawley rats [4]): dose-dependently decreased rates of responding
doses that produced observable signs of sedation and ataxia (Spraque-Dawley rats [5]; [10]): < 10 mg/kg
doses that produced observable signs of sedation and ataxia (Spraque-Dawley rats [5]; [9]): < 10 mg/kg
doses that produced observable signs of sedation and ataxia (Spraque-Dawley rats [5]; PO, PGE2-induced thermal hypersensitivity study): < 100 mg/kg
% MPE (reversal of PGE2-induced thermal hypersensitivity) (Spraque-Dawley rats [6]; IP, 3 mg/kg): 13%
% MPE (reversal of PGE2-induced thermal hypersensitivity) (Spraque-Dawley rats [6]; IP, 10 mg/kg): 15%
% MPE (reversal of PGE2-induced thermal hypersensitivity) (Spraque-Dawley rats [6]; PO, 10 mg/kg): −1%
% MPE (reversal of PGE2-induced thermal hypersensitivity) (Spraque-Dawley rats [6]; PO, 30 mg/kg): 11%
% MPE (reversal of PGE2-induced thermal hypersensitivity) (Spraque-Dawley rats [6]; PO, 100 mg/kg): 5%
self-administration (monkeys): maintains self-administration
% Reversal of CCl-induced tactile hypersensitivity (Spraque-Dawley rats [7]; cumulative dose 3 mg/kg): −25%
% Reversal of CCl-induced tactile hypersensitivity (Spraque-Dawley rats [7]; cumulative dose 10 mg/kg): −45%
reversal of CCl-induced tactile hypersensitivity (in words) (Spraque-Dawley rats [7]): none of the comparative compounds produced any reversal
